Assay results: PubChem BioAssay (NCI)
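1) Cells in 96-well plates. 2) Compound, 48 h, 5 concentrations. 3) Linear interpolation between surrounding doses. 4) Unreached endpoint = highest concentration. Definition used: TGI = concentration required for complete inhibition of growth.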

Experiments:
Assay in all cases: NCI tumour cell line growth inhibition, 48 h
[1] = system: SK-MEL-5 melanoma
[2] = system: MALME-3M melanoma
[3] = system: T-47D breast
[4] = system: HCT-15 colon
[5] = system: MCF7 breast
[6] = system: OVCAR-3 ovarian
[7] = system: BT-549 breast
[8] = system: DU-145 prostate
[9] = system: LOX IMVI melanoma
[10] = system: NCI/ADR-RES ovarian
[11] = system: SF-295 CNS
[12] = system: K-562 leukemia
[13] = system: ACHN renal
[14] = system: SK-OV-3 ovarian
[15] = system: PC-3 prostate
[16] = system: HCT-116 colon
[17] = system: UACC-62 melanoma
[18] = system: OVCAR-8 ovarian
[19] = system: HL-60(TB) leukemia
[20] = system: MDA-MB-231 breast
[21] = system: 786-0 renal
[22] = system: CAKI-1 renal
[23] = system: RPMI-8226 leukemia
[24] = system: HCC-2998 colon
[25] = system: SK-MEL-2 melanoma
[26] = system: SK-MEL-28 melanoma
[27] = system: TK-10 renal
[28] = system: SF-268 CNS
[29] = system: HOP-62 NSCLC
[30] = system: UACC-257 melanoma
[31] = system: RXF 393 renal
[32] = system: NCI-H226 lung
[33] = system: HS 578T breast
[34] = system: SR leukemia
[35] = system: SNB-19 CNS
[36] = system: KM12 colon
[37] = system: COLO 205 colon
[38] = system: EKVX NSCLC
[39] = system: SNB-75 CNS
[40] = system: HT29 colon
[41] = system: M14 melanoma
[42] = system: MDA-N
[43] = system: NCI-H23 lung
[44] = system: MOLT-4 leukemia
[45] = system: UO-31 renal
[46] = system: U251 CNS
[47] = system: NCI-H460 lung
[48] = system: IGROV1 ovarian
[49] = system: SW-620 colon
[50] = system: A549 NSCLC
[51] = system: MDA-MB-435
[52] = system: OVCAR-5 ovarian
[53] = system: OVCAR-4 ovarian
[54] = system: CCRF-CEM leukemia
[55] = system: SN12C renal
[56] = system: A498 renal
[57] = system: SF-539 CNS
[58] = system: NCI-H522 lung

Measured: TGI

CCCC(=O)n1[nH]c(=O)n(C(C)(C)C)c1=O
not listed: [56] | [57] | [58]
> 100 µM: all other assays above

Nc1nc2c(c(=O)[nH]1)N=C(COP(=O)(O)OP(=O)(O)O)CN2
not listed: [6] | [47] | [53]
> 100 µM: all other assays above
